Measured values as given in paper PMC9485262, “Structural characterization of a soil viral auxiliary metabolic gene product – a functional chitosanase” (Nature Communications, 2022).

Columns and labels:
[1] = target: T1, V-Csn (uncultured phage, UniProt Z9RE59BL32); test: X-ray crystal structure of co-crystal, […] A; format: binding; conditions: co-crystallised with about 5 mM chitohexaose, 0.2 M ammonium sulfate, 0.1 M sodium acetate pH 4.6, 30% MMePEG2000; active-site cleft; three of six GlcN residues modelled
T1 construct: model residues 1-224 plus linker GHS; dimer in solution

[2] = target: V-Csn (Viral Chitosanase), soil viral GH75 chitosanase AMG product (soil virus (predicted Proteobacteria phage; forest soil metagenome)); test: SEC; size exclusion chromatography of purified V-Csn in solution; conditions of this observation are not given (gel filtration in the purification used a Superdex HiLoad 26/60 column)

Molecule	X-ray crystal structure of co-crystal, 1.30 A [1]	stoichiometry N [2]
N[C@H]1[C@H](O[C@H]2[C@H](O)[C@@H](N)[C@H](O[C@H]3[C@H](O)[C@@H](N)[C@H](O[C@H]4[C@H](O)[C@@H](N)[C@H](O[C@H]5[C@H](O)[C@@H](N)[C@H](O[C@H]6[C@H](O)[C@@H](N)C(O)O[C@@H]6CO)O[C@@H]5CO)O[C@@H]4CO)O[C@@H]3CO)O[C@@H]2CO)O[C@H](CO)[C@@H](O)[C@@H]1O (some centres unmarked) [chitohexaose]	gave a complex with the E157Q mutant only	–
V-Csn (Viral Chitosanase), soil viral GH75 chitosanase AMG product (enzyme)	–	2
